Results taken from the supplement of paper PMC10949913.

Assays:
Conditions in all cases: 48 h
CU-ACC1 [1] = assay: area under concentration-response curve (viability) (AUC (a.u.)); higher = less active
In short: (§1)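 AC50 and area under the curve values derive from fitted concentration-response curves, restricted to inhibitory or non-responding curve classes. The curves came from three adrenocortical carcinoma cell lines in 1,536-well plates, each receiving 23 nL of every library compound at 11 concentrations. Viability was read by CellTiter-Glo luminescence after 48 h, normalised per plate to vehicle and empty-well controls.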

NCI-H295R [2] = assay: as above
In short: as §1

CU-ACC1 [3] = assay: AC50 viability; higher = less potent
In short: as §1

NCI-H295R [4] = assay: AC50 viability; higher = less potent
In short: as §1

CU-ACC2 = assay: area under concentration-response curve (viability) (AUC (a.u.)); higher = less active
In short: as §1

Compound | area under concentration-response curve (CU-ACC1 [1]) | area under concentration-response curve (NCI-H295R [2]) | AC50 viability (CU-ACC1 [3]) | AC50 viability (NCI-H295R [4]) | area under concentration-response curve (CU-ACC2)
Cc1c(CN2CCN(C(=O)[C@H](C)O)CC2)sc2c(N3CCOCC3)nc(-c3cnc(N)nc3)nc12 | 215 | 210 | 0.0295 µM | 2.09 µM | 
Cc1c(-c2ccc(O)cc2)n(Cc2ccc(OCCN3CCCCCC3)cc2)c2ccc(O)cc12 | 496 | 508 | 29.5 µM | 23.5 µM | 
Cc1[nH]c(/C=C2\C(=O)Nc3ccc([S+](=O)([O-])N(C)c4cccc(Cl)c4)cc32)c(C)c1C(=O)N1CCN(C)CC1 | 397 | 491 | 20.9 µM | 33.2 µM | 
CN1CCN(C2CCN(C(=O)Nc3cc(Oc4ccc(NC(=O)C5(C(=O)Nc6ccc(F)cc6)CC5)c(F)c4)ccn3)CC2)CC1 | 392 | 453 | 29.5 µM | 20.9 µM | 
c1ccc2c(-c3cnn4cc(-c5ccc(OCCN6CCOCC6)cc5)cnc34)ccnc2c1 | 395 | 568 | 4.56 µM |  | 637
COC(=O)C1=C(C)NC(C)=C(C(=O)OCCN2CCN(C(c3ccccc3)c3ccccc3)CC2)C1c1cccc([N+](=O)[O-])c1.Cl.Cl (stereo not given) | 462 | 497 | 20.9 µM | 11.8 µM | 
CC(C)CC(=O)Nc1n[nH]c2c1CN(C(=O)C1CCN(C)CC1)C2(C)C | 514 | 562 | 16.6 µM |  | 574
COc1ccc([S+](=O)([O-])Nc2cccnc2Nc2ccc(O)cc2)cc1 | 479 | 498 | 4.68 µM |  | 569
FC1=C(C=C(C/C2=N/NC(=O)C3=C2C=CC=C3)C=C1)C(=O)N4CCN(CC4)C(=O)C5CC5 | 456 | 434 | 10.5 µM |  | 464
CCC(=O)N[C@H]1CC[C@H](C(=O)N(C)c2ccc(-c3nc4ccccc4o3)cc2)C1 | 548 | 555 | 23.5 µM |  | 661
N[S+](=O)([O-])c1ccc(NC(=S)N2CCN(C/C=C/c3ccccc3)CC2)cc1 | 494 | 523 | 20.9 µM |  | 583
Cc1c(CN2CCC(Nc3ncnc4sc(CC(F)(F)F)cc34)CC2)ccc2c1cc(C#N)n2Cc1cn[nH]c1 | 411 | 453 | 3.32 µM |  | 540
C[C@@H]1CC[C@@]2(CC[C@]3(C)\C(=C/C[C@@H]4[C@@]5(C)CC[C@H](O)C(C)(C)[C@@H]5CC[C@@]34C)[C@@H]2[C@H]1C)C(O)=O | 402 | 419 | 9.34 µM |  | 441
Cc1c[nH]c(/C=C2\C(=O)Nc3ccccc32)c1CCC(=O)O | 428 | 381 | 0.0105 µM |  | 353
Fc1ccc(CNc2ncnc3ccc(F)cc23)cc1 | 415 | 509 | 2.35 µM |  | 577
CC1=C(C)C\2=C(S1)[N]3C(=NN=C3C(CC(=O)NC4=CC=C(O)C=C4)\N=C2C5=CC=C(Cl)C=C5)C (stereo not given) | 458 | 527 | 2.63 µM |  | 549
COc1ccc(Cc2nccc3cc(OC)c(OC)cc23)cc1OC | 384 | 533 | 6.61 µM |  | 583
[O-]C(=O)C1=C(C(=C(Cl)C(=C1Cl)Cl)Cl)C/2=C/3\C=C(I)/C(=O)/C(=C3OC4=C2C=C(I)C(=C4I)[O-])I | 421 | 417 | 13.2 µM |  | 434
Cn1c(=O)c2c(ncn2CC2OCCO2)n(C)c1=O | 294 | 452 | 0.00235 µM |  | 375
N=C(N)Nc1ccc(C(=O)Oc2ccc3cc(C(=N)N)ccc3c2)cc1 | 460 | 532 | 33.2 µM |  | 585
Cc1cc(OCCC[S+](C)(=O)[O-])cc(C)c1-c1cccc(COc2ccc3c(c2)OC[C@H]3CC(=O)O)c1 | 425 | 491 | 20.9 µM |  | 528
COC1CCN(CC1)C(=O)C2=CC(=CC=C2F)CC/3=N/NC(=O)C4=CC=CC=C34 | 441 | 423 | 0.209 µM |  | 457

Compound | area under concentration-response curve (CU-ACC1 [1]) | area under concentration-response curve (NCI-H295R [2]) | AC50 viability (CU-ACC1 [3]) | AC50 viability (NCI-H295R [4]) | area under concentration-response curve (CU-ACC2)
CN(NC(=O)CC(=O)NN(C)C(=S)c1ccccc1)C(=S)c1ccccc1 | 402 | 521 | 3.72 µM |  | 567
CCCn1c(=O)c2[nH]c(C34CC5CC3C[C@@H](C5)C4)nc2n(CCC)c1=O | 435 | 489 | 26.3 µM |  | 524
Cn1cnc2c(F)c(Nc3ccc(Br)cc3F)c(C(=O)NOCCO)cc21 | 242 | 159 | 0.0332 µM |  | 145
CN(C)C(=O)[C@H](O)[C@H](Cc1ccccc1)NC(=O)c1cc2cc(Cl)ccc2[nH]1 | 364 | 444 | 0.0118 µM |  | 420
O=C(Nc1ccccc1Br)N[C@@H]1CCN(c2ccc(C(F)(F)F)cn2)C1 | 477 | 539 | 20.9 µM |  | 575
COc1ccc2cc3[n+](cc2c1OC)CCc1cc2c(cc1-3)OCO2 | 444 | 557 | 4.68 µM |  | 573
Nc1nccc(-c2c(-c3ccc(F)cc3)ncn2C2CCCCC2)n1 | 480 | 556 | 14.8 µM |  | 621
O=C1c2cccc(O)c2C(=O)c2c(O)cc(CO)cc21 | 508 | 575 | 10.5 µM |  | 656
CCOCOC[C@H](C[C@H](C)C(=O)NO)NC(=O)c1ccc(Oc2ccccc2)cc1 | 512 | 595 | 23.5 µM |  | 636
CC(C)(C)OC(=O)Nc1ccc(-c2cc(C(=O)NCCCCCCC(=O)NO)no2)cc1 | 479 | 564 | 14.8 µM |  | 598
Cc1cccc(CC(=O)N2CCc3c2ccc(-c2cn(C)c4ncnc(N)c24)c3F)n1 | 487 | 551 | 4.68 µM |  | 644
C=CC(=O)N1CCC(C2CCNc3c(C(N)=O)c(-c4ccc(Oc5ccccc5)cc4)nn32)CC1 (stereo not given) | 492 | 553 | 16.6 µM |  | 614
CC(C)n1c(/C=C/[C@H](O)C[C@H](O)CC(=O)O)c(-c2ccc(F)cc2)c2ccccc21 | 506 | 567 | 10.5 µM |  | 617
CC(C)(C)NC(=O)Nc1cccc(Nc2ncc(F)c(NC(C)(C)CO)n2)c1 | 525 | 571 | 23.5 µM |  | 652
CN[S+]([O-])(=O)NC1=NC=CC(=C1F)CC/2=C(C)/C3=CC=C(OC4=NC=CC=N4)C=C3OC2=O | 441 | 577 | 7.42 µM |  | 611
CC(=O)[C@]1(N)Cc2c(O)c3c(c(O)c2[C@@H](O[C@H]2C[C@H](O)[C@H](O)CO2)C1)C(=O)c1ccccc1C3=O | 474 | 534 | 16.6 µM |  | 487
O=C(NC[C@H](O)CO)c1ccncc1Nc1ccc(I)cc1F | 397 | 537 | 11.8 µM |  | 506
CCc1c(C(=O)NNC(=O)[C@@H](O)c2cc(F)cc(F)c2)ccc(O)c1C | 387 | 441 | 26.3 µM |  | 492
OC[C@H](Cc1ccccc1)Nc1nc(Oc2ccc3c(c2)CCC3)nc2c1ncn2Cc1ccc(-c2ccccc2)cc1 | 430 | 477 | 14.8 µM |  | 524
FC1=CC=C(SC/2=N/N3\C=N/C(=O)/C(=C3/C=C2)C4=C(Cl)C=CC=C4Cl)C(=C1)F | 453 | 541 | 0.0372 µM |  | 562
Cc1ccc(N[S+](=O)([O-])c2cccc(C#N)c2)c2[nH]cc(C#N)c12 | 451 | 489 | 0.833 µM |  | 576
CNC(=O)c1cc(Oc2ccc3nc(N[C@@H]4CCCC[C@H]4O)sc3c2)ccn1 | 481 | 548 | 20.9 µM |  | 583

Compound | area under concentration-response curve (CU-ACC1 [1]) | area under concentration-response curve (NCI-H295R [2]) | AC50 viability (CU-ACC1 [3]) | AC50 viability (NCI-H295R [4]) | area under concentration-response curve (CU-ACC2)
COC(=O)N1CCN(Cc2cccc(NC(=O)Nc3ccc(C)nc3)c2F)CC1 | 486 | 573 | 74.2 µM |  | 601
O=C(NOCCO)c1ccc2cncn2c1Nc1ccc(I)cc1F | 461 | 549 | 14.8 µM |  | 598
COCCOC1=CN=C2\C=C/N([C@H](C)C3=NN=C4[N]3C=C(C=C4F)C5=C[N](C)N=C5)C(=O)C2=C1 | 394 | 322 | 0.0118 µM |  | 338
CC(C)c1noc(N2CCC(COc3ccc(-c4ccc([S+](C)(=O)[O-])cc4)nc3)CC2)n1 | 419 | 496 | 8.33 µM |  | 583
COc1nnc2ccc(N3CCC(c4ccc(OCCN5CCN(C)C(=O)[C@H]5C)cc4)CC3)nn12 | 468 | 474 | 0.263 µM |  | 449
CN(C)CCOc1cc(-c2cn[nH]c2)ccc1NC(=O)C1COc2ccccc2O1 (stereo not given) | 390 | 452 | 20.9 µM |  | 426
COc1ccc(Cn2ccc3ccc(C(=O)NO)cc32)cc1 | 524 | 582 | 23.5 µM |  | 625
CN[C@@H]1C[C@H]2O[C@@](C)([C@@H]1OC)n1c3ccccc3c3c4c(c5c6ccccc6n2c5c31)C(=O)NC4 | 385 | 346 | 0.833 µM |  | 359
O=C(O)c1nn(Cc2ccc(Cl)cc2Cl)c2ccccc12 | 442 | 440 | 1.66 µM |  | 464
CCNC(=O)c1noc(-c2cc(C(C)C)c(O)cc2O)c1-c1ccc(CN2CCOCC2)cc1 | 226 | 198 | 0.0118 µM |  | 114
CCN(CC)CCCC[C@H](NC(=O)[C@H](CC(C)C)NC(=O)[C@H](C)NC(=O)[C@H](Cc1ccccc1)NC(=O)c1ccc(C(C)(C)C)cc1)C(=O)N[C@@H](CO)C(=O)OC | 446 | 421 | 0.0132 µM |  | 424
O=C(O)c1ccc(O)c2ncccc12 | 458 | 447 | 33.2 µM |  | 491
S=C(NCc1ccc2c(c1)OCO2)N1CCN(c2ncnc3c2oc2ccccc23)CC1 | 383 | 483 | 2.95 µM |  | 567
Cc1[nH]c2ccc(F)cc2c1-c1nc2c3cccnc3c3ncccc3c2[nH]1 | 326 | 424 | 1.52 µM |  | 498
CC#C[C@@H](CC(=O)O)c1ccc(OCc2cccc(-c3ccc(C(F)(F)F)cc3)c2)cc1 | 406 | 411 | 1.48 µM |  | 506
Cc1nc2cnc3ccc(C#Cc4cccnc4)cc3c2n1-c1ccc(C(C)(C)C#N)cc1 | 402 | 492 | 0.661 µM |  | 557
Cc1c(C(=O)N2CCOc3ccc(-c4ccc(N)nc4)cc3C2)ccc([S+](C)(=O)[O-])c1F | 428 | 473 | 8.33 µM |  | 516
Cc1cc(-c2ncc(CC(=O)Nc3ccc(-c4cnccn4)cn3)cc2C)ccn1 | 429 | 500 | 7.42 µM |  | 597
CNC(=O)c1c(F)cccc1Nc1nc(Nc2cc3c(cc2OC)CCN3C(=O)CN(C)C)nc2[nH]ccc12 | 524 | 458 | 20.9 µM |  | 526
O=C1CCc2cc(OCCCCc3nnnn3C3CCCCC3)ccc2N1 | 468 | 531 | 18.6 µM |  | 579
CC[C@H](C)C(=O)O[C@H]1CC\C=C2\C=C/[C@H](C)[C@H](CC[C@@H]3C[C@@H](O)CC(=O)O3)[C@@H]12 | 426 | 484 | 14.8 µM |  | 415
